Assay results published in patent publication US6528685B2 (Teva Pharmaceutical Industries, Ltd., priority 1994, dated 2003).

Tests used:
hypoxic rat [1] = experiment: α-MpT-induced hypokinesia in hypoxic rat, Experiment 1A; format: in vivo; conditions: for Locomotor activity after α-MpT treatment, recorded as total movements / Locomotor activity after αMpT treatment, recorded as big movements: hypoxic rats, 0.5 mg/kg/day by gavage 70-80 days; for Locomotor activity after αMpT treatment, recorded as big movements: Mean ± SEM
Procedure: (§1) Wistar male rats, 15-19 month-old, were exposed to a single hypoxic episode which is assumed to decrease the level of dopamine in the brain. […] The drugs were administered by gavage, using a special syringe equipped with rounded tip that could be directed into the stomach. The dose was contained in 0.3-0.5 mL of distilled water. The rats were pretreated for 70-80 days with daily doses of the test drugs and received intra-peritoneal (i.p.) α-MpT (α-methyl-p-tyrosine) at a dose of 100 mg/kg in 0.3-0.5 mL saline. Controls received saline. α-MpT is assumed to inhibit the formation of L-Dopa from tyrosine and, consequently the formation of dopamine itself. Lack of central dopamine is expressed as hypokinesia. Following the injection of α-MpT, motor activity was recorded for the duration of 10 hours. Locomotion scores were taken in seven fully-computerized cages (26×25 cm) having a grid of infra-red beams at 4 cm-intervals.
(§2) Crossing of a beam initiated an electric signal which was fed into a computer. The number of crossings over a given period provided a measure of locomotion.
(§3) The records gave two data categories: (a) “small movements” originating in stationary activities such as grooming and scratching and (b) “big movements” originating in ambulation and recorded as the simultaneous crossing of more than two beams. “Total movements” include both categories.
(§4) Counts of motor activity in the presence of α-MpT were related as percent with respect to counts in its absence in the corresponding control group (unlesioned or hypoxia-lesioned). Motor activity counts of drug-treated rats were related to the hypoxia saline-treated as 100%. All behavioral tests were performed 90-120 min. after administration of the last dose of the test compound.

hypoxic rat [2] = experiment: α-MpT-induced hypokinesia in hypoxic rat, Experiment 1B; format: in vivo; conditions: hypoxic rats, 0.3 mg/Kg daily i.p. 21 days; for Locomotor activity after α-MpT treatment, recorded as big movements: Mean ± SEM
Procedure: as §1, §2, §3, §4
The procedure of Experiment 1A was repeated with the following changes:
(1) Animal: 11-14 month-old rats.
The drugs were given i.p.
(3) Duration of the treatment: 21 days.
(4) Dose of α-MpT: 70 mg/Kg.

hypoxic rat [3] = experiment: Amphetamine-induced stereotype behavior in hypoxic rat, Experiment 2A; format: in vivo; conditions: hypoxic group, with respect to hypoxia and amphetamine control
Procedure: Wistar male rats, 15-19 month-old, were exposed to a single hypoxic episode as described above. […] Rats pretreated for 29 days with daily doses of the test drugs (0.5 mg/kg), received a sub-cutaneous (s.c.) injection of D-amphetamine sulfate at a dose of 0.5 mg/kg. D-amphetamine is known to cause an enhancement of the effects of CNS dopamine by a mechanism involving dopamine release, and blockage of its uptake and its metabolism by MAO. The behavioral manifestation of amphetamine action is a stereotypic pattern of lateral head movements. Counts of lateral head movements were taken over two successive intervals of 1 min each, 45-60 min after the injection of amphetamine and then averaged.

hypoxic rat [4] = experiment: Passive avoidance test in hypoxic rat, Experiment 3A; format: in vivo; conditions: hypoxic rats
Procedure: Wistar male rats, 15-19 month-old, were exposed to a single hypoxic episode as described above. […] The passive avoidance test was performed on day 13 after initiation the drug treatment. The apparatus consisted of a lit chamber that can be separated from a dark chamber by a sliding door. At training, a rat is placed in the lit chamber for 30 seconds, then the door is opened. The rat moves to the dark chamber after a short delay—the latency, that is recorded. Upon entry into the dark chamber, the door is shut closed and a 0.3-mA footshock is delivered for 3 seconds by a Grass S-88 stimulator. Retention of the experience is determined after 48 hours by repeating the test and recording the latency to an arbitrary maximum of 300 seconds. Longer latencies are ascribed to retention of memory and improved cognition.

hypoxia-lesioned rats = experiment: Water maze working memory test, Experiment 3B; format: in vivo, rat; conditions: hypoxia-lesioned rats; 0.5 mg/kg/day 60 days; ± SEM
Description: The apparatus used consists of a circular water tank 160 cm in diameter filled with water to a depth of 38 cm. The water was made cloudy by the addition of milk powder. A clear Plexiglass 15 cm platform, supported by a movable stand rest on the bottom of the tank was submerged to a depth of 2 cm from the water surface. Normally a swimming rat cannot perceive the location of the platform but it may recall it from a previous experience and training, unless it suffers from some memory impairment. The time taken to locate the platform is measured in seconds and referred to as the latency. During the experiment all orientational cues such as ceiling lights etc. remained unchanged. Longer latencies are observed with rats with some impairment to their memory.
Each rat was given two trails a day for four days, entering the pool from the same point of entry each day. The position of the platform was changed daily to one of four predetermined positions. Each rat was tested twice each day over the four days, referred to as runs 1 and 2 on sessions I-IV. Initially the rat was placed on the platform for 60 seconds. It was then removed and placed at the point of entry and allowed a maximum of 120 seconds to locate the platform (run 1). The second run for that day followed 60 seconds later (run 2). In the second run the rat is expected to find the platform much sooner, having benefitted from its earlier experience. […] The average latency of run 1 in four sessions on four different days was then related to the corresponding parameter of run 2. The smaller the ratio of […], the better the short range learning score.
Table 8. […] The data are the latencies in seconds±SEM that it took a given group to locate a submerged and invisible platform the location of which was shifted from one session to the other. The time interval between sessions was one day, and that between successive runs was 60 seconds. (n=7-8 rats per group)

SMILES: C#CCN(C)[C@H](C)Cc1ccccc1 [deprenyl]
- Locomotor activity after α-MpT treatment, recorded as total movements (hypoxic rat [1]; hour 1 after α-MpT): 88 ± 23%
- Locomotor activity after αMpT treatment, recorded as big movements (hypoxic rat [1]; hour 1 after α-MpT): 61 ± 15%
- Locomotor activity after α-MpT treatment, recorded as total movements (hypoxic rat [1]; hour 2 after α-MpT): 131 ± 30%
- Locomotor activity after αMpT treatment, recorded as big movements (hypoxic rat [1]; hour 2 after α-MpT): 103 ± 22%
- Locomotor activity after α-MpT treatment, recorded as total movements (hypoxic rat [1]; hour 3 after α-MpT): 141 ± 26%
- Locomotor activity after αMpT treatment, recorded as big movements (hypoxic rat [1]; hour 3 after α-MpT): 184 ± 39%
- Locomotor activity after α-MpT treatment, recorded as total movements (hypoxic rat [1]; hour 4 after α-MpT): 191 ± 45%
- Locomotor activity after αMpT treatment, recorded as big movements (hypoxic rat [1]; hour 4 after α-MpT): 85 ± 34%
- Locomotor activity after α-MpT treatment, recorded as total movements (hypoxic rat [1]; hour 5 after α-MpT): 229 ± 40%
- Locomotor activity after αMpT treatment, recorded as big movements (hypoxic rat [1]; hour 5 after α-MpT): 171 ± 61%
- Locomotor activity after αMpT treatment, recorded as big movements (hypoxic rat [1]; hour 6 after α-MpT): 65 ± 17%
- Locomotor activity after α-MpT treatment, recorded as total movements (hypoxic rat [1]; hour 7 after α-MpT): 204 ± 7%
- Locomotor activity after αMpT treatment, recorded as big movements (hypoxic rat [1]; hour 7 after α-MpT): 96 ± 29%
- Locomotor activity after α-MpT treatment, recorded as total movements (hypoxic rat [1]; hour 8 after α-MpT): 131 ± 23%
- Locomotor activity after αMpT treatment, recorded as big movements (hypoxic rat [1]; hour 8 after α-MpT): 91 ± 40%
- Locomotor activity after α-MpT treatment, recorded as total movements (hypoxic rat [1]; hour 9 after α-MpT): 137 ± 21%
- Locomotor activity after αMpT treatment, recorded as big movements (hypoxic rat [1]; hour 9 after α-MpT): 84 ± 23%
- Locomotor activity after α-MpT treatment, recorded as total movements (hypoxic rat [1]; hour 10 after α-MpT): 116 ± 22%
- Locomotor activity after αMpT treatment, recorded as big movements (hypoxic rat [1]; hour 10 after α-MpT): 29 ± 10%
- effect on hypokinetic syndrome, big movements, in words (hypoxic rat [1]; hypoxia group, ten hour observation): less effective
- level of activity (total movements) versus corresponding control group, in words (hypoxic rat [1]; hypoxic rats pretreated): much higher
- Locomotor activity after α-MpT treatment, recorded as total movements (hypoxic rat [2]; hour 1 after α-MpT 70 mg/Kg): 68 ± 9%
- Locomotor activity after α-MpT treatment, recorded as big movements (hypoxic rat [2]; hour 1 after α-MpT 70 mg/Kg): 70 ± 10%
- Locomotor activity after α-MpT treatment, recorded as total movements (hypoxic rat [2]; hour 2 after α-MpT 70 mg/Kg): 95 ± 11%
- Locomotor activity after α-MpT treatment, recorded as big movements (hypoxic rat [2]; hour 2 after α-MpT 70 mg/Kg): 91 ± 19%
- Locomotor activity after α-MpT treatment, recorded as total movements (hypoxic rat [2]; hour 3 after α-MpT 70 mg/Kg): 126 ± 22%
- Locomotor activity after α-MpT treatment, recorded as big movements (hypoxic rat [2]; hour 3 after α-MpT 70 mg/Kg): 85 ± 19%
- Locomotor activity after α-MpT treatment, recorded as total movements (hypoxic rat [2]; hour 4 after α-MpT 70 mg/Kg): 118 ± 20%
- Locomotor activity after α-MpT treatment, recorded as big movements (hypoxic rat [2]; hour 4 after α-MpT 70 mg/Kg): 88 ± 23%
- Locomotor activity after α-MpT treatment, recorded as total movements (hypoxic rat [2]; hour 5 after α-MpT 70 mg/Kg): 83 ± 24%
- Locomotor activity after α-MpT treatment, recorded as big movements (hypoxic rat [2]; hour 5 after α-MpT 70 mg/Kg): 87 ± 11%
- Locomotor activity after α-MpT treatment, recorded as total movements (hypoxic rat [2]; hour 6 after α-MpT 70 mg/Kg): 78 ± 9%
- Locomotor activity after α-MpT treatment, recorded as big movements (hypoxic rat [2]; hour 6 after α-MpT 70 mg/Kg): 67 ± 8%
- Locomotor activity after α-MpT treatment, recorded as total movements (hypoxic rat [2]; hour 7 after α-MpT 70 mg/Kg): 56 ± 7%
- Locomotor activity after α-MpT treatment, recorded as big movements (hypoxic rat [2]; hour 7 after α-MpT 70 mg/Kg): 62 ± 9%
- Locomotor activity after α-MpT treatment, recorded as total movements (hypoxic rat [2]; hour 8 after α-MpT 70 mg/Kg): 185 ± 13%
- Locomotor activity after α-MpT treatment, recorded as big movements (hypoxic rat [2]; hour 8 after α-MpT 70 mg/Kg): 70 ± 9%
- Locomotor activity after α-MpT treatment, recorded as total movements (hypoxic rat [2]; hour 9 after α-MpT 70 mg/Kg): 111 ± 12%
- Locomotor activity after α-MpT treatment, recorded as big movements (hypoxic rat [2]; hour 9 after α-MpT 70 mg/Kg): 132 ± 24%
- Locomotor activity after α-MpT treatment, recorded as total movements (hypoxic rat [2]; hour 10 after α-MpT 70 mg/Kg): 61 ± 12%
- Locomotor activity after α-MpT treatment, recorded as big movements (hypoxic rat [2]; hour 10 after α-MpT 70 mg/Kg): 54 ± 13%
- potentiation of stereotypic behavior induced by amphetamine, in words (hypoxic rat [3]): did not potentiate
- passive avoidance performance, in words (hypoxic rat [4]): showed no improvement
- latency to locate platform, Session I Run 1 (hypoxia-lesioned rats): 42 ± 16 s
- latency to locate platform, Session I Run 2 (hypoxia-lesioned rats): 40 ± 17 s
- latency to locate platform, Session II Run 1 (hypoxia-lesioned rats): 42 ± 18 s
- latency to locate platform, Session II Run 2 (hypoxia-lesioned rats): 35 ± 16 s
- latency to locate platform, Session III Run 1 (hypoxia-lesioned rats): 32 ± 15 s
- latency to locate platform, Session III Run 2 (hypoxia-lesioned rats): 8 ± 2 s
- latency to locate platform, Session IV Run 1 (hypoxia-lesioned rats): 19 ± 6 s
- latency to locate platform, Session IV Run 2 (hypoxia-lesioned rats): 12 ± 4 s
